The text below walks through data of US20250137059A1, “ACTIVATED RAS AS THERAPEUTIC AND DIAGNOSTIC TARGET FOR NEUROFIBROMATOSIS AND USE THEREOF” (THE ASAN FOUNDATION, priority 2021, published 2025).

Common to all, as to type: cell-based, human
Test [1] relates to GTP-bound and activated RAS (Ras-GTP) protein. Kind of test: G-LISA Ras activation assay in skin fibroblasts after EGF stimulation upon Ataluren treatment. The settings on record: skin fibroblasts of neurofibromatosis patients (NF1 stop codon mutation) with increased Ras activity compared to normal individuals; Ataluren 20 μg/ml and 30 μg/ml (FIG. 3: 30 μg/ml); EGF 100 ng/ml. The method, then: The skin fibroblasts from donated normal individuals and neurofibromatosis patients were cultured in a DMEM supplemented with 10% FBS and 1% penicillin-streptomycin. When the cells were cultured until the density reached 70% to 80% of a container, the medium was replaced with an FBS-free medium, and the cells were cultured and subjected to a starvation process for 24 hours. Next, the cells were transferred to an FBS-containing medium, treated with epidermal growth factor (EGF), which is a Ras activator, by dilution to a concentration of 100 ng/ml, and then allowed for a reaction at 37° C. for 5 minutes to prepare each sample. To analyze the activity of the RAS proteins, a G-LISA Ras activation assay biochem Kit of Cytoskeleton Company (Absorbance Based) (Cytoskeleton, Cat No. BK131), which enables the measurement of a small number of cells and a large number of cells at the same time by compensating for the disadvantages of the pull-down assay, was used.
Briefly, in a method of analyzing the activity of the RAS proteins, cells were lysed by using a cell lysis solution included in the kit after treatment with EGF, only the supernatant was obtained, and the proteins contained in the supernatant were quantified. […] Next, an HRP detection reagent was added and a reaction was allowed for 15 minutes at room temperature to measure the absorbance at 490 nm. […]

Test [2] deals with phosphorylated ERK (p-ERK). Kind of test: Electrophoresis comparison of p-ERK expression in fibroblasts upon Ataluren treatment (FIG. 4). The settings on record: Ataluren 20 μg/ml or 30 μg/ml, electrophoresis (FIG. 4); for expression of p-ERK: fibroblasts of neurofibromatosis patients in which the activity of Ras proteins has been decreased. The method, then: (§1) The skin fibroblasts from donated normal individuals and neurofibromatosis patients were treated with Ataluren at concentrations of 20 μg/ml and 30 μg/ml and cultured, in a DMEM supplemented with 10% FBS and 1% penicillin-streptomycin. When the cells were cultured until the density reached 70% to 80% of a container, the medium was replaced with an FBS-free medium, and the cells were cultured and underwent a starvation process for 24 hours. Next, the cells were transferred to an FBS-containing medium, treated with EGF, which is a Ras activator, by dilution to a concentration of 100 ng/ml, and then allowed for a reaction at 37° C. for 5 minutes to prepare each sample. Measurement of the activity of Ras proteins in each sample was performed in the same manner as described in Example 2.
(§2) The same protein of which the Ras activity was measured in Example 3 was subjected to electrophoresis by using NuPAGETM 4-12% Bris-Tris Gel (Invitrogen).

The subject of another test is p-ERK protein. Put plainly: Expression ratios of ERK and p-ERK on membrane with ERK and p-ERK antibodies (FIG. 5). The settings on record: Ataluren 20 μg/ml or 30 μg/ml (FIG. 5). The method, then: as §1, §2
To more accurately compare the ERK activity, the electrophoresed proteins were transferred to a hybond-ECL membrane, and the membrane was blocked with 3% skim milk. Next, ERK and p-ERK antibodies were reacted on the membrane at 4° C. for 24 hours, and then washed by using TBST three times. […] The expression ratios of ERK and p-ERK in the washed membrane were measured.

The mark [3] stands for this setting: fibroblasts of normal individuals.

For `O=C(O)c1cccc(-c2noc(-c3ccccc3F)n2)c1` [Ataluren, 3-[5-(2-fluoro-phenyl)-[1,2,4]oxadiazol-3-yl]-benzoic acid], the “signal of Ras-GTP (activity of Ras proteins)” value in test [1] is reported as “significantly decreased”. For the same compound, the “expression of p-ERK” value is “decreased” in test [2] and “significantly decreased” in test [2] (listed as ataluren). The “expression of phosphorylated ERK (p-ERK)” value in test [2] (setting [3]) was “no change”. In addition, the “expression of p-ERK (expression ratios of ERK and p-ERK)” value with p-ERK protein (fibroblasts of neurofibromatosis patients in which the activity of Ras proteins has been decreased) is “decreased”. Besides, the “expression level of p-ERK protein (expression ratios of ERK and p-ERK)” value in the test on p-ERK protein (setting [3]) is “slightly increased”.
